What was measured:
Format in all cases: cell-based, mouse
[1] = test system: Hepa1c1c-7 cells stimulated by LPS; test: GPCR 10-pathway reporter assay in LPS-induced Hepa1c1c-7 cells; conditions: 100 ng/mL LPS 1 hour, then 50 μM AzA 6 hours
Experimental: Mouse hepatocytes, i.e., Hepa1c1c-7 cells were seeded on a 96 well-plate at 1×10^4 cells/well and cultured for 24 hours, and transfected with a construct including a transcription factor promoter and a luciferase for 8 hours. The experiment was performed on two groups, i.e., a group with inflammation in hepatocytes caused by LPS and a group not being treated with LPS. In the non-treated control, 50 μM of AzA was treated for 6 hours, and in the experimental group, inflammation was induced by treating 100 ng/mL of LPS, the inflammation-inducing material, for 1 hour, and then 50 μM of AzA was treated for 6 hours. As a result, downstream pathway, which was activated by an AzA, was confirmed. To confirm a mechanism of an anti-inflammatory effect of an AzA, 10 transcription factors for signal transduction of GPCR were analyzed. […] Based on the Olfr544-cAMP-CREB signal transduction process of an AzA, the change of a complicated downstream signal transduction pathway system in response to GPCR activation and inhibition was examined using 10 types of transcription factors through a GPCR 10-pathway reporter assay. A GPCR 10-signal transduction pathway measurement is a method for assessing a representative signal pathway of GPCR using a reporter gene assay method, and the change of a complicated downstream signal transduction pathway system in response to the activation and inhibition of GPCR can be assessed using 10 types of transcription factors. A GPCR Signaling 10-pathway Reporter Array (QIAGEN, Netherlands) used in this example includes a transcription factor inducing downstream signal transduction and a firefly luciferase construct in each experimental group, and is based on a principle, in which luciferase activity is measured by continuously expressing a Renilla luciferase construct. The 10 types of transcription factors are as follows: ATF2/ATF3/ATF4, CREB, ELK1/SRF, FOS/JUN, MEF2, GLI, FOXO, STAT3, NFAT, and NFκB. In this example, the luciferase activity was measured using a dual luciferase assay kit (Promega, USA) and Victor™ X2 (PerkinElmer, CA, USA).

[2] = test system: Hepa1c1c-7 cells stimulated by LPS; test: IL-6 and TNF-α gene expression (qPCR) in LPS-treated Hepa1c1c-7 cells; conditions: compared with control group
Experimental: 1 μg of RNA extracted from Hepa1c1c-7 hepatocytes was used to synthesize cDNA by using a ReverTra Ace® qPCR RT kit (TOYOBO, Osaka, Japan). More particularly, to increase the efficiency of an RT-PCR reaction, the extracted RNA was treated at 65° C. for 5 minutes, and immediately stored on ice. Afterward, a total of 8 μL of a reaction mixture was prepared with 2 μL of a 4×DNA Master Mix containing a gDNA remover, 0.5 μg of RNA and distilled water (nuclease-free water), and reacted at 37° C. for 5 minutes. And then, a 5×RT Master mix was added to the reaction mixture, reacted at 37° C.-5 min, 50° C.-5 min and 98° C.-5 min to synthesize cDNA.
PCR was performed with the cDNA synthesized by the above-described method using a THUNDERBIRD SYBR qPCR Mix (TOYOBO, Osaka, Japan) and an iQ5 iCycler system (Bio-Rad, California, USA). More particularly, amplification was performed with initial denaturation at 95° C. for 4.5 minutes, and 40 cycles of additional denaturation at the same temperature for 10 seconds, annealing and cooling at 55 to 60° C. for 30 seconds, and elongation at 68° C. for 20 seconds. The expression level of each gene was normalized using GAPDH expression. Primers were designed using the Nucleotide BLAST Software of the National Center for Biotechnology Information (NCBI), and purchased from Bionics (Seoul, Korea).

[3] = test system: Hepa1c1c-7 cells stimulated by LPS; test: IL-6 and TNF-α cytokine concentration (ELISA) in LPS-treated Hepa1c1c-7 cells; conditions: 50 μM AzA pretreatment 1 hour, 100 ng/mL LPS 6 hours
Experimental: Hepa1c1c-7 cells were cultured in a 12-well plate for 24 hours. Subsequently, the cells were pretreated with 50 μM of AzA for 1 hour, and treated with 100 ng/mL LPS for 6 hours with the AzA present. The Hepa1c1c-7 cells were lysed in a cell lysis buffer (50 mM Tris, 1% Triton-X 100, 1 mM EDTA, proteinase inhibitor), centrifuged at 13,000 rpm and 4° C. for 20 minutes, thereby obtaining a supernatant, and then the supernatant was analyzed using a Mouse IL6 ELISA kit and a Mouse TNFα ELISA kit (Thermo Scientific, IL, USA). Tumor necrosis factor-alpha (TNF-α) and interleukin-6 (IL-6) were quantified using ELISA known to those of ordinary skill in the art.

SMILES: O=C(O)CCCCCCCC(=O)O [AzA, nonanedioic acid]
- CREB transcription factor activity (cAMP/PKA pathway) [1]: significant activities
- ELK1/SRF transcription factor activity (MAPK/ERK pathway) [1]: significant activities
- STAT3 transcription factor activity (IL-6 signaling pathway) [1]: significant activities
- IL-6 gene expression [2]: significantly decreased
- TNF-α gene expression [2]: significantly decreased
- expression level of the IL-6 protein [3]: tendency of decrease
